Data reported in PMC7044277 (Nature Communications, 2020).
Where “and” joins values, the source holds several entries; their conditions need not be identical. Identical values can stand only once.

What was measured:
Type in all cases: cell-based
320 non-olfactory GPCRs [1] = biological target: 320 non-olfactory GPCRs (Homo sapiens, UniProt P08172)
320 non-olfactory GPCRs [2] = biological target: 320 non-olfactory GPCRs (Homo sapiens, UniProt P25090)
320 non-olfactory GPCRs [3] = biological target: T1, 320 non-olfactory GPCRs (Homo sapiens, UniProt P43115); conditions: receptor PTGER3; replicate values, Fig_4g
T1 construct: expressed in transfected cells; host or cells: HTLA cells
T1 sequence (P43115 whole entry): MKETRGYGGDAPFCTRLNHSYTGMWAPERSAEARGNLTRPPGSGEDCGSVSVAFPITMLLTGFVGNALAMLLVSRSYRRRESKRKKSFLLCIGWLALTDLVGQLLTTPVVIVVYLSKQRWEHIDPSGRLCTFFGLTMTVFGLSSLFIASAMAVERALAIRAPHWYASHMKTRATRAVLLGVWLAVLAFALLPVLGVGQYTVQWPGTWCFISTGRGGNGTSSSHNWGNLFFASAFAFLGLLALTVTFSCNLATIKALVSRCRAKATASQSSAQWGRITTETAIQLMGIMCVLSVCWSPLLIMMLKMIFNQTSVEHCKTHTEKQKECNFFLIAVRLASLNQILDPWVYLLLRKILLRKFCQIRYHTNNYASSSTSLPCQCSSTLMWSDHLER

320 non-olfactory GPCRs [4] = biological target: T2, 320 non-olfactory GPCRs (Homo sapiens, UniProt P48146); conditions: receptor NPBW2; replicate values, Fig_4g
T2 construct: expressed in transfected cells; host or cells: HTLA cells
T2 sequence (P48146 whole entry): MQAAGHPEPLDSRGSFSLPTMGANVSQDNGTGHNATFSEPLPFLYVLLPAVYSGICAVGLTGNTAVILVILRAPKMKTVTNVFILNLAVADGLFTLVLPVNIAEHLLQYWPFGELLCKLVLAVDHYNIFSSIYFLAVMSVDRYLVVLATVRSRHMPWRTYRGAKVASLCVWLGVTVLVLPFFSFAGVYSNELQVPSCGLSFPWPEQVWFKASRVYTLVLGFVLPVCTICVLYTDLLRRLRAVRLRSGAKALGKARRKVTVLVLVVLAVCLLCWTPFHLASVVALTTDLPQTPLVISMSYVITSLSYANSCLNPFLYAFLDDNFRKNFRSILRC
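For Fold of Basal in this document: compound tested at 1 µM final concentration.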
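For GPCRome agonism screen response in this document: fold over basal response of each receptor without drug.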

Sequence of 320 non-olfactory GPCRs (Homo sapiens, UniProt P08172) (P08172 whole entry): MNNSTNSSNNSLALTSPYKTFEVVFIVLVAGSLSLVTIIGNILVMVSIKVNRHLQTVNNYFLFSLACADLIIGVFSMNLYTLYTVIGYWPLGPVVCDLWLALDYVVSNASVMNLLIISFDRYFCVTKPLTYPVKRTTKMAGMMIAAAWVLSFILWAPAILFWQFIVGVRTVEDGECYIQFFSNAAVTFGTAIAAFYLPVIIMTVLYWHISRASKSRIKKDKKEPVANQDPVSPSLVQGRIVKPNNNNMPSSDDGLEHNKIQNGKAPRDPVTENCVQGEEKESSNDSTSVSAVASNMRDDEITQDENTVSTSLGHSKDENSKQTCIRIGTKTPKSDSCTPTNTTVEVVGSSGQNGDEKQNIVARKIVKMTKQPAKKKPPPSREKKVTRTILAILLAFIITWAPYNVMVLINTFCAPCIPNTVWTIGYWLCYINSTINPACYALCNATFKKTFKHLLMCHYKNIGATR
Sequence of 320 non-olfactory GPCRs (Homo sapiens, UniProt P25090) (P25090 whole entry): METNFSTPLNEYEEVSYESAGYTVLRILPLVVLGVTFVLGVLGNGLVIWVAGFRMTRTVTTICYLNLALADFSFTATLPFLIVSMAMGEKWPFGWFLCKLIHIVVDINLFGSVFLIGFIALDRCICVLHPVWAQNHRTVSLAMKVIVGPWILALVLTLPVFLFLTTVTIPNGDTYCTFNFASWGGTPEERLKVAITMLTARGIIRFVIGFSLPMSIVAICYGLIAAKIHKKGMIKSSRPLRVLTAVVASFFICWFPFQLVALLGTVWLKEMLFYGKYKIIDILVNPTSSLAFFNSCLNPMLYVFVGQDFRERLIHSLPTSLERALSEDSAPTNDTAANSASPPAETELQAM

CCOc1cccc2cc(C(C)NCC3(O)CCCCC3)oc12 (stereo not shown) [O4LE6]
Fold of Basal (320 non-olfactory GPCRs [1]): 1.524 and 1.414 and 0.8585 and 0.8596
Fold of Basal (320 non-olfactory GPCRs [2]): 1.561 and 1.917 and 2.561 and 1.97
GPCRome agonism screen response (320 non-olfactory GPCRs [3]): 0.07165 and 0.9825 and 0.5999
GPCRome agonism screen response (320 non-olfactory GPCRs [4]): 0.5262 and 0.8272 and 1.363 and 1.562
